In patent US5556744A, “Methods and compositions for diagnosing and treating certain HIV infected patients” (The Trustees of the University of Pennsylvania, priority 1994, dated 1996):

Experiments:
[1] = system: maternal sera (antibodies); assay: ELISA peptide-binding of maternal sera (Example 6); design: species or system human; conditions: for Number of Non-Transmitters which bound to peptide / Percent of Non-Transmitters which bound to peptide: N = 12; for Number of Transmitters which bound to peptide / Percent of Transmitters which bound to peptide: N = 4
Method in brief: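 Third-trimester maternal sera, from HIV-1 transmitting and non-transmitting mothers, were tested by ELISA against ~16-residue peptides spanning HIV-1 external and transmembrane glycoproteins. Each serum was run with at least 40 peptides, and values are the percentage of sera binding each peptide.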

[2] = system: maternal HIV+ sera (antibodies); assay: RIA / ELISA binding of maternal HIV+ sera to gp120 and gp41 peptides (Example 3); design: species or system human
Method in brief: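 Peptides were coated at 10 μg/ml in carbonate buffer pH 9.6 and blocked with 1% BSA. Sera at 1:50 and 1:500 were incubated overnight at 4°C and detected with ¹²⁵I anti-human IgG (RIA) or HRP/TMB at OD450 (ELISA). Specific binding was taken as peptide minus no-peptide wells, scored as a ratio to normal human serum.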

[3] = Serum No. 1, Non-Transmission Group
[4] = Serum No. 2, Non-Transmission Group
[5] = Serum No. 3, Non-Transmission Group
[6] = Serum No. 4, Transmission Group
[7] = Serum No. 5, Transmission Group
[8] = Serum No. 6, Non-Transmission Group
[9] = Serum No. 7, Non-Transmission Group
[10] = Serum No. 8, Non-Transmission Group
[11] = Serum No. 9, Non-Transmission Group
[12] = Serum No. 10, Transmission Group
[13] = Serum No. 11, Non-Transmission Group
[14] = Serum No. 12, Non-Transmission Group
[15] = Serum No. 13, Transmission Group
[16] = Serum No. 14, Transmission Group
[17] = Serum No. 15, Transmission Group
[18] = Serum No. 16, Non-Transmission Group
[19] = Serum No. 17, Non-Transmission Group
[20] = Serum No. 18, Non-Transmission Group
[21] = Serum No. 19, Transmission Group
[22] = Serum No. 20, Non-Transmission Group

Sequence | Number of Non-Transmitters which bound to peptide [1] | Percent of Non-Transmitters which bound to peptide [1] [%] | Number of Transmitters which bound to peptide [1] | Percent of Transmitters which bound to peptide [1] [%] | Binding of maternal HIV+ serum to peptide (sera/NHS ratio) [2, 3] | Binding of maternal HIV+ serum to peptide (sera/NHS ratio) [2, 4] | Binding of maternal HIV+ serum to peptide (sera/NHS ratio) [2, 5] | Binding of maternal HIV+ serum to peptide (sera/NHS ratio) [2, 6] | Binding of maternal HIV+ serum to peptide (sera/NHS ratio) [2, 7] | Binding of maternal HIV+ serum to peptide (sera/NHS ratio) [2, 8] | Binding of maternal HIV+ serum to peptide (sera/NHS ratio) [2, 9] | Binding of maternal HIV+ serum to peptide (sera/NHS ratio) [2, 10] | Binding of maternal HIV+ serum to peptide (sera/NHS ratio) [2, 11] | Binding of maternal HIV+ serum to peptide (sera/NHS ratio) [2, 12] | Binding of maternal HIV+ serum to peptide (sera/NHS ratio) [2, 13] | Binding of maternal HIV+ serum to peptide (sera/NHS ratio) [2, 14] | Binding of maternal HIV+ serum to peptide (sera/NHS ratio) [2, 15] | Binding of maternal HIV+ serum to peptide (sera/NHS ratio) [2, 16] | Binding of maternal HIV+ serum to peptide (sera/NHS ratio) [2, 17] | Binding of maternal HIV+ serum to peptide (sera/NHS ratio) [2, 18] | further results
EGGERDRDRSIRLVN [Peptide 129] | 0 | 0 | 0 | 0 | + (which value is between 2 to 3) | - (specific OD450 or cpm of sera sample binding to peptide divided by the specific OD450 or cpm of NHS sample binding to peptide, which value is less than 2) | - (specific OD450 or cpm of sera sample binding to peptide divided by the specific OD450 or cpm of NHS sample binding to peptide, which value is less than 2) | - (specific OD450 or cpm of sera sample binding to peptide divided by the specific OD450 or cpm of NHS sample binding to peptide, which value is less than 2) | - (specific OD450 or cpm of sera sample binding to peptide divided by the specific OD450 or cpm of NHS sample binding to peptide, which value is less than 2) | - (specific OD450 or cpm of sera sample binding to peptide divided by the specific OD450 or cpm of NHS sample binding to peptide, which value is less than 2) | - (specific OD450 or cpm of sera sample binding to peptide divided by the specific OD450 or cpm of NHS sample binding to peptide, which value is less than 2) | - (specific OD450 or cpm of sera sample binding to peptide divided by the specific OD450 or cpm of NHS sample binding to peptide, which value is less than 2) | - (specific OD450 or cpm of sera sample binding to peptide divided by the specific OD450 or cpm of NHS sample binding to peptide, which value is less than 2) | - (specific OD450 or cpm of sera sample binding to peptide divided by the specific OD450 or cpm of NHS sample binding to peptide, which value is less than 2) | - (specific OD450 or cpm of sera sample binding to peptide divided by the specific OD450 or cpm of NHS sample binding to peptide, which value is less than 2) | - (specific OD450 or cpm of sera sample binding to peptide divided by the specific OD450 or cpm of NHS sample binding to peptide, which value is less than 2) | - (specific OD450 or cpm of sera sample binding to peptide divided by the specific OD450 or cpm of NHS sample binding to peptide, which value is less than 2) | - (specific OD450 or cpm of sera sample binding to peptide divided by the specific OD450 or cpm of NHS sample binding to peptide, which value is less than 2) | - (specific OD450 or cpm of sera sample binding to peptide divided by the specific OD450 or cpm of NHS sample binding to peptide, which value is less than 2) | - (specific OD450 or cpm of sera sample binding to peptide divided by the specific OD450 or cpm of NHS sample binding to peptide, which value is less than 2) | Binding of maternal HIV+ serum to peptide (sera/NHS ratio) [2, 19]: - (specific OD450 or cpm of sera sample binding to peptide divided by the specific OD450 or cpm of NHS sample binding to peptide, which value is less than 2); Binding of maternal HIV+ serum to peptide (sera/NHS ratio) [2, 20]: - (specific OD450 or cpm of sera sample binding to peptide divided by the specific OD450 or cpm of NHS sample binding to peptide, which value is less than 2); Binding of maternal HIV+ serum to peptide (sera/NHS ratio) [2, 21]: - (specific OD450 or cpm of sera sample binding to peptide divided by the specific OD450 or cpm of NHS sample binding to peptide, which value is less than 2); Binding of maternal HIV+ serum to peptide (sera/NHS ratio) [2, 22]: - (specific OD450 or cpm of sera sample binding to peptide divided by the specific OD450 or cpm of NHS sample binding to peptide, which value is less than 2)
RKSIGIQRGPGR [Peptide 1029-33] | 0 | 0 | 0 | 0 | + (which value is between 2 to 3) | ++ (which value is greater than 3) | + (which value is between 2 to 3) | - (specific OD450 or cpm of sera sample binding to peptide divided by the specific OD450 or cpm of NHS sample binding to peptide, which value is less than 2) | + (which value is between 2 to 3) | - (specific OD450 or cpm of sera sample binding to peptide divided by the specific OD450 or cpm of NHS sample binding to peptide, which value is less than 2) | - (specific OD450 or cpm of sera sample binding to peptide divided by the specific OD450 or cpm of NHS sample binding to peptide, which value is less than 2) | - (specific OD450 or cpm of sera sample binding to peptide divided by the specific OD450 or cpm of NHS sample binding to peptide, which value is less than 2) | - (specific OD450 or cpm of sera sample binding to peptide divided by the specific OD450 or cpm of NHS sample binding to peptide, which value is less than 2) | - (specific OD450 or cpm of sera sample binding to peptide divided by the specific OD450 or cpm of NHS sample binding to peptide, which value is less than 2) | + (which value is between 2 to 3) | + (which value is between 2 to 3) | + (which value is between 2 to 3) | - (specific OD450 or cpm of sera sample binding to peptide divided by the specific OD450 or cpm of NHS sample binding to peptide, which value is less than 2) | + (which value is between 2 to 3) | - (specific OD450 or cpm of sera sample binding to peptide divided by the specific OD450 or cpm of NHS sample binding to peptide, which value is less than 2) | Percentage of sera samples demonstrating binding to peptide, non-transmitter ([2]; Non-transmitter group, n = 13): 53.8%; Binding of maternal HIV+ serum to peptide (sera/NHS ratio) [2, 19]: + (which value is between 2 to 3); Binding of maternal HIV+ serum to peptide (sera/NHS ratio) [2, 20]: - (specific OD450 or cpm of sera sample binding to peptide divided by the specific OD450 or cpm of NHS sample binding to peptide, which value is less than 2); Binding of maternal HIV+ serum to peptide (sera/NHS ratio) [2, 21]: - (specific OD450 or cpm of sera sample binding to peptide divided by the specific OD450 or cpm of NHS sample binding to peptide, which value is less than 2); Binding of maternal HIV+ serum to peptide (sera/NHS ratio) [2, 22]: ++ (which value is greater than 3); Percentage of sera samples demonstrating binding to peptide, transmitter ([2]; Transmitter / transmission group, n = 7): 42.9%; Percent of the maternal serum samples that bound to the peptide ([2]; all 20 samples): 50%
